Source: US20090312385A1, “CANNABINOID RECEPTOR MODULATORS FOR TREATING NON-IMMEDIATE TYPE ALLERGIC DISEASES” (Glenmark Pharmaceuticals, S.A., priority 2007, published 2009)

Test system: TDI-induced dermatitis in BALB/c mice
Experiment: toluene-2,4-diisocyanate (TDI) induced dermatitis model, topical treatment of the ear
Format: in vivo, female BALB/c mice
Details: for inhibition of various parameters: standard reference compounds, dose not stated
Procedure: The sensitization protocol was as per W. Baumer et al., J Pharm Pharmacol., 55(8):1107-14 (2003). The abdominal region was shaved and depilated using Veet. Subsequently, the horny layers were stripped 10 times with adhesive tape. For active sensitization, 100 μl of 5% TDI was applied to the stripped skin for 3 consecutive days.
Prescreening was performed 21 days later. In brief, the sensitized mice were challenged with an application of 10 μl of 0.5% TDI on both the inner and outer surface of the left ear, the right ear served as control in each mouse. Ear thickness was measured with a cutimeter (Model7309, Mitutoyo Japan) prior to challenge and 24 hours after challenge. […] Animals were rested for 7 days after prescreening, to allow for the ear thickness to return to normal.
Five groups (A-E) were studied.
On day 28, test compounds. GRC-CPD-A (0.3, 3 and 10%) were prepared using DMSO and acetone in the ratio of 1:9 as solvents. 20 μl (10 μl on each side of the ear) of the formulation was applied to the left ear of each mouse as per the study design 6 hours prior to challenge with TDI. 20 μl of TDI was applied to both inner and outer surface of the left ear of each mouse. The right ear served as control and received an application of 10 μl of acetone on each side. 24 hours post TDI challenge ear thickness was determined and ears were collected for histology and eosinophil peroxidase (EPO) determination. Ear sections were processed for histology and stained with hematoxylin-eosin (HE) and lesions were scored as follows: 0=no cell infiltration or edema, 1-4-granulocyte infiltration/oedema depending on severity. A combined congo-red-toluidine blue staining was also carried out to identify eosinophils which were then quantified per 12 high power fields (hpf). EPO levels in ear sections were determined by standard […] assay using […] as substrate.
All data were expressed as mean±SEM. All groups were subjected to one-way ANOVA and means were compared using Dunnett's post hoc test using GraphPad prism software.

[1] = conclusion, in a dose dependent manner (0.3, 3 and 10% topical)

Compound	EPO levels [1]	ear swelling (oedema and eosinophil infiltration) [1]	inhibition of ear swelling (topical application of 10%, 6 hours prior to TDI challenge, ear thickness 24 hours post TDI challenge, FIG. 1)	histological scores (topical application of 10%, HE-stained ear sections, lesion score 0-4, 24 hours post TDI challenge, FIG. 2)	EPO levels in the ear (topical application of 10%, eosinophil peroxidase in ear sections, 24 hours post TDI challenge, FIG. 4)	eosinophil infiltration (topical application of 10%, eosinophils per 12 hpf in ear sections, 24 hours post TDI challenge, FIG. 3)	inhibition of various parameters
CC(C)(C)NC(=O)c1nn(-c2ccc(F)cc2F)c2c1[C@H]1CC[C@@H]2C1 [GRC-CPD-A, (1R,7S)—N5-(tert-butyl)-3-(2,4-difluorophenyl)-3,4-diazatricylco[5.2.1.0^2,6]deca-2(6),4-diene-5-carboxamide]	effectively inhibits	effectively inhibits	significant (p<0.001) dose-dependent inhibition	improved	inhibited	inhibited	–
C=CC[C@@H]1/C=C(\C)C[C@H](C)C[C@H](OC)[C@H]2O[C@@](O)(C(=O)C(=O)N3CCCC[C@H]3C(=O)O[C@H](/C(C)=C/[C@@H]3CC[C@@H](O)[C@H](OC)C3)[C@H](C)[C@@H](O)CC1=O)[C@H](C)C[C@@H]2OC [tacrolimus, reference compound]	–	–	–	–	–	–	significant inhibition
C[C@]12CCC(=O)C=C1CC[C@@H]1[C@@H]2[C@@H](O)C[C@@]2(C)[C@H]1CC[C@]2(O)C(=O)CO [hydrocortisone, reference compound]	–	–	–	–	–	–	significant inhibition
